Laboratory results as given in patent US4243408A, “Herbicidal N-triazolylmethyl-substituted alpha-haloacetanilide” (Chevron Research Company, priority 1978, dated 1981).

Key:
Assay type in all cases: in vivo
[1] = system: Crabgrass (Digitaria sanguinalis); test: Pre-Emergent Test, herbicidal effectiveness; conditions: pre-emergence, 504 h, 33 micrograms per cm^2, 3 weeks, 0-to-100 scale, read-out: Herbicidal Effectiveness, % Control Pre, C
Method in brief: (§1)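 Pre-emergence spray, 33 micrograms/cm^2 onto soil surface after seeding; acetone/nonionic surfactant formulation diluted in water. Greenhouse hold after watering. Visual rating 0–100 (0 no phytotoxicity, 100 complete kill).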

[2] = system: Lambsquarter (Chenopodium album); test: Pre-Emergent Test, herbicidal effectiveness; conditions: pre-emergence, 504 h, 33 micrograms per cm^2, 3 weeks, 0-to-100 scale, read-out: Herbicidal Effectiveness, % Control Pre, L
Method in brief: as §1

[3] = system: Mustard (Brassica arvensis); test: Pre-Emergent Test, herbicidal effectiveness; conditions: pre-emergence, 504 h, 33 micrograms per cm^2, 3 weeks, 0-to-100 scale
Method in brief: as §1

[4] = system: Pigweed (Amaranthus retroflexus); test: Pre-Emergent Test, herbicidal effectiveness; conditions: pre-emergence, 504 h, 33 micrograms per cm^2, 3 weeks, 0-to-100 scale, read-out: Herbicidal Effectiveness, % Control Pre, P
Method in brief: as §1

[5] = system: Watergrass (Echinochloa); test: Pre-Emergent Test, herbicidal effectiveness; conditions: pre-emergence, 504 h, 33 micrograms per cm^2, 3 weeks, 0-to-100 scale, read-out: Herbicidal Effectiveness, % Control Pre, W
Method in brief: as §1

[6] = system: Wild Oats (Avena fatua); test: Pre-Emergent Test, herbicidal effectiveness; conditions: pre-emergence, 504 h, 33 micrograms per cm^2, 3 weeks, 0-to-100 scale, read-out: Herbicidal Effectiveness, % Control Pre, O
Method in brief: as §1

[7] = system: Crabgrass (Digitaria sanguinalis); test: Post-Emergent Test, herbicidal effectiveness; conditions: post-emergence, 504 h, 33 micrograms per cm^2, 3 weeks, 0-to-100 scale, read-out: Herbicidal Effectiveness, % Control Post, C
Method in brief: (§2)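 Read-out: 0–100 visual phytotoxicity score at 3 wk (100 = complete kill). Foliar spray, 5000 ppm, 33 micrograms/cm^2, onto 24-day-old plants in duplicate pots; acetone/nonionic surfactant/water formulation; greenhouse, watered at base.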

[8] = system: Lambsquarter (Chenopodium album); test: Post-Emergent Test, herbicidal effectiveness; conditions: post-emergence, 504 h, 33 micrograms per cm^2, 3 weeks, 0-to-100 scale, read-out: Herbicidal Effectiveness, % Control Post, L
Method in brief: as §2

[9] = system: Mustard (Brassica arvensis); test: Post-Emergent Test, herbicidal effectiveness; conditions: post-emergence, 504 h, 33 micrograms per cm^2, 3 weeks, 0-to-100 scale
Method in brief: as §2

[10] = system: Pigweed (Amaranthus retroflexus); test: Post-Emergent Test, herbicidal effectiveness; conditions: post-emergence, 504 h, 33 micrograms per cm^2, 3 weeks, 0-to-100 scale, read-out: Herbicidal Effectiveness, % Control Post, P
Method in brief: as §2

[11] = system: Watergrass (Echinochloa); test: Post-Emergent Test, herbicidal effectiveness; conditions: post-emergence, 504 h, 33 micrograms per cm^2, 3 weeks, 0-to-100 scale, read-out: Herbicidal Effectiveness, % Control Post, W
Method in brief: as §2

[12] = system: Wild Oats (Avena fatua); test: Post-Emergent Test, herbicidal effectiveness; conditions: post-emergence, 504 h, 33 micrograms per cm^2, 3 weeks, 0-to-100 scale, read-out: Herbicidal Effectiveness, % Control Post, O
Method in brief: as §2

CCc1cccc(C)c1NCc1nnc(SC)n1C [Compound 21A]
0%: pest or weed control at 33 µg/cm2 [1] | pest or weed control at 33 µg/cm2 [2] | pest or weed control at 33 µg/cm2 [3] | pest or weed control at 33 µg/cm2 [4] | pest or weed control at 33 µg/cm2 [5] | pest or weed control at 33 µg/cm2 [6] | pest or weed control at 5000 µg/mL, 33 µg/cm2 [7] | pest or weed control at 5000 µg/mL, 33 µg/cm2 [8] | pest or weed control at 5000 µg/mL, 33 µg/cm2 [9] | pest or weed control at 5000 µg/mL, 33 µg/cm2 [10] | pest or weed control at 5000 µg/mL, 33 µg/cm2 [11] | pest or weed control at 5000 µg/mL, 33 µg/cm2 [12]

Cc1cccc(C)c1NC(C)c1nnc[nH]1 (stereo not drawn) [Compound 12A]
0%: pest or weed control at 33 µg/cm2 [1] | pest or weed control at 33 µg/cm2 [2] | pest or weed control at 33 µg/cm2 [3] | pest or weed control at 33 µg/cm2 [4] | pest or weed control at 33 µg/cm2 [5] | pest or weed control at 33 µg/cm2 [6] | pest or weed control at 5000 µg/mL, 33 µg/cm2 [7] | pest or weed control at 5000 µg/mL, 33 µg/cm2 [8] | pest or weed control at 5000 µg/mL, 33 µg/cm2 [9] | pest or weed control at 5000 µg/mL, 33 µg/cm2 [10] | pest or weed control at 5000 µg/mL, 33 µg/cm2 [11] | pest or weed control at 5000 µg/mL, 33 µg/cm2 [12]

CCc1nnc(CN(C(=O)CCl)c2c(C)cccc2CC)[nH]1 [Compound 15B]
35%: pest or weed control at 5000 µg/mL, 33 µg/cm2 [8] | pest or weed control at 5000 µg/mL, 33 µg/cm2 [9]
75%: pest or weed control at 5000 µg/mL, 33 µg/cm2 [7]
80%: pest or weed control at 5000 µg/mL, 33 µg/cm2 [11]
100%: pest or weed control at 33 µg/cm2 [1] | pest or weed control at 33 µg/cm2 [2] | pest or weed control at 33 µg/cm2 [3] | pest or weed control at 33 µg/cm2 [4] | pest or weed control at 33 µg/cm2 [5] | pest or weed control at 33 µg/cm2 [6]
30%: pest or weed control at 5000 µg/mL, 33 µg/cm2 [10]
55%: pest or weed control at 5000 µg/mL, 33 µg/cm2 [12]

CCc1cccc(C)c1NCc1nnc(S)n1C [Compound 19]
0%: pest or weed control at 33 µg/cm2 [1] | pest or weed control at 33 µg/cm2 [2] | pest or weed control at 33 µg/cm2 [3] | pest or weed control at 33 µg/cm2 [4] | pest or weed control at 33 µg/cm2 [5] | pest or weed control at 33 µg/cm2 [6] | pest or weed control at 5000 µg/mL, 33 µg/cm2 [7] | pest or weed control at 5000 µg/mL, 33 µg/cm2 [8] | pest or weed control at 5000 µg/mL, 33 µg/cm2 [9] | pest or weed control at 5000 µg/mL, 33 µg/cm2 [10] | pest or weed control at 5000 µg/mL, 33 µg/cm2 [11] | pest or weed control at 5000 µg/mL, 33 µg/cm2 [12]

CCc1cccc(C)c1NCc1nnc[nH]1 [Compound 17A]
0%: pest or weed control at 33 µg/cm2 [1] | pest or weed control at 33 µg/cm2 [2] | pest or weed control at 33 µg/cm2 [3] | pest or weed control at 33 µg/cm2 [4] | pest or weed control at 33 µg/cm2 [5] | pest or weed control at 33 µg/cm2 [6] | pest or weed control at 5000 µg/mL, 33 µg/cm2 [7] | pest or weed control at 5000 µg/mL, 33 µg/cm2 [8] | pest or weed control at 5000 µg/mL, 33 µg/cm2 [9] | pest or weed control at 5000 µg/mL, 33 µg/cm2 [10] | pest or weed control at 5000 µg/mL, 33 µg/cm2 [11] | pest or weed control at 5000 µg/mL, 33 µg/cm2 [12]

CCc1cccc(C)c1NCc1nnc(C)[nH]1 [Compound 6A]
0%: pest or weed control at 33 µg/cm2 [1] | pest or weed control at 33 µg/cm2 [2] | pest or weed control at 33 µg/cm2 [3] | pest or weed control at 33 µg/cm2 [4] | pest or weed control at 33 µg/cm2 [5] | pest or weed control at 33 µg/cm2 [6] | pest or weed control at 5000 µg/mL, 33 µg/cm2 [7] | pest or weed control at 5000 µg/mL, 33 µg/cm2 [8] | pest or weed control at 5000 µg/mL, 33 µg/cm2 [9] | pest or weed control at 5000 µg/mL, 33 µg/cm2 [10] | pest or weed control at 5000 µg/mL, 33 µg/cm2 [11] | pest or weed control at 5000 µg/mL, 33 µg/cm2 [12]

CCc1cccc(C)c1N(Cc1nnc(SC)n1C)C(=O)CCl [Compound 21B]
0%: pest or weed control at 33 µg/cm2 [1] | pest or weed control at 33 µg/cm2 [2] | pest or weed control at 33 µg/cm2 [3] | pest or weed control at 33 µg/cm2 [4] | pest or weed control at 33 µg/cm2 [6] | pest or weed control at 5000 µg/mL, 33 µg/cm2 [7] | pest or weed control at 5000 µg/mL, 33 µg/cm2 [8] | pest or weed control at 5000 µg/mL, 33 µg/cm2 [9] | pest or weed control at 5000 µg/mL, 33 µg/cm2 [10] | pest or weed control at 5000 µg/mL, 33 µg/cm2 [11] | pest or weed control at 5000 µg/mL, 33 µg/cm2 [12]
98%: pest or weed control at 33 µg/cm2 [5]
